Holding throughout (assay type): in vivo, rabbit
For experiment [1], the system named is REC1_28 (digital address CGGT 101) mRNA, calgizzarin. In words: TOGA analysis, REC1_28. On the procedure: (§1) To perform the studies, New Zealand male rabbits weighing 2.0-2.5 kg (Charles River, Calco, Italy) were used. The rabbits were divided into three groups and maintained in identical experimental conditions: (1) control group (n=15); rabbits fed a cholesterol-rich diet; (2) lercanidipine-treated group (n=15); rabbits fed a cholesterol-rich diet and also treated with lercanidipine (3 mg/kg/week); and (3) (R)-lercanidipine-treated group (n=5); rabbits fed a cholesterol-rich diet and also treated with the (R)-enantiomer of lercanidipine (3 mg/kg/week). After a 2 week period of subcutaneous, once a week, pretreatment with 3 mg/kg/week of lercanidipine or (R)-lercanidipine, the rabbits received a daily cholesterol supplement for up to 8 weeks or 2 weeks, respectively. In the following examples, use of the term “lercanidipine” refers to the racemic mixture of lercanidipine hydrochloride, whereas “(R)-lercanidipine” refers to the (R)-enantiomer of lercanidipine hydrochloride.
(§2) The mRNA from the above-described groups was isolated from aorta at different time points, resulting in the following mRNA samples: (1) Day 0 Control=no administered cholesterol, no lercanidipine; (2) Day 0+lercanidipine=no administered cholesterol, treatment with lercanipidine (2 weeks; 3 mg/kg/week); (3) Day 14 Control=cholesterol diet for two weeks, no lercanidipine; (4) Day 14+lercanidipine=cholesterol diet for two weeks, treatment with lercanidipine (four weeks; 3 mg/kg/week); (5) Week 8 Control=cholesterol diet for 8 weeks, no lercanidipine; and (6) Week 8+lercanidipine=cholesterol diet for 8 weeks, treatment with lercanidipine (10 weeks; 3 mg/kg/week). In addition, Day 14+(R)-lercanidipine mRNA samples were prepared from rabbits given a cholesterol diet for two weeks and treated with 3 mg/kg/week (R)-lercanidipine for four weeks.
(§3) Aorta mRNAs were prepared in the following manner. First, the aortas from each experimental group were retrieved and shredded using a polytron homogenizer. The samples were further homogenized using a teflon pestle, after which the cellular debris, nuclei, and blood cells were pelleted by centrifugation. The supernatants were extracted twice with phenol-chloroform-isoamyl alcohol and once with chloroform-isoamyl alcohol. RNA was then precipitated from the aqueous phase with ethanol. The poly A+ mRNA was prepared using standard methods of polyA selection known in the art (Schriber et al., J. Mol. Biol., 142:93-116 (1980)).
(§4) The isolated mRNA was analyzed using a method of simultaneous sequence-specific identification of mRNAs known as TOGA, described in U.S. Pat. No. 5,459,037 and U.S. Pat. No. 5,807,680, hereby incorporated herein by reference. In a preferred embodiment, the TOGA method further comprised an additional PCR step performed using a mixture of four 5′ PCR primers and cDNA templates prepared from a population of antisense cRNAs. A final PCR step that used a mixture of 256 5′ PCR primers produced PCR products that were cDNA fragments that corresponded to the 3′-region of the starting mRNA population. The produced PCR products were then identified by: (a) the initial 5′ sequence comprising the sequence remainder of the recognition site of the restriction endonuclease used to cut and isolate the 3′ region plus the sequence of the preferably four parsing bases immediately 3′ to the remainder of the recognition site, preferably the sequence of the entire fragment; and (b) the length of the fragment. These two parameters, sequence and fragment length, were used to compare the obtained PCR products to a database of known polynucleotide sequences. Since the length of the obtained PCR products includes known vector sequences at the 5′ and 3′ ends of the insert, the sequence of the insert provided in the sequence listing is shorter than the fragment length that forms part of the digital address.
(§5) The method yields Digital Sequence Tags (DSTs), that is, polynucleotides that are expressed sequence tags of the 3′ end of mRNAs. […]

Experiment [2] has as its system REC1_33 (digital address CCGA 96) mRNA, as1_casein gene. In words: TOGA analysis, REC1_33. On the procedure:
as §1, §2, §3, §4, §5

Experiment [3] concerns REC1_8 (MspI CCCG 243) mRNA. In words: TOGA analysis, REC1_8. The conditions noted are these: REC1_8 CCCG 243; rabbit aorta, 14 days cholesterol. As for the experimental part: as §1, §2, §3
as §4, with “These two parameters, sequence and fragment length, were used to compare the obtained PCR products to a database of known polynucleotide sequences. Since the length of the obtained PCR products includes known vector sequences at the 5′ and 3′ ends of the insert, the sequence of the insert provided in the sequence listing is shorter than the fragment length that forms part of the digital address.” left out

Experiment [4] has as its system REC1_1 (MspI AAGC 288) mRNA, TYRO protein tyrosine kinase binding p. In words: TOGA analysis, REC1_1. On the procedure:
as §1, §2, §3, §4, §5

Experiment [5] has as its system REC1_19 (TGTT 393) mRNA. Briefly: TOGA analysis, REC1_19. The conditions noted are these: REC1_19 TGTT 393; rabbit aorta, cholesterol 14 days. As for the experimental part:
as §1, §2, §3
as §4, with “These two parameters, sequence and fragment length, were used to compare the obtained PCR products to a database of known polynucleotide sequences. Since the length of the obtained PCR products includes known vector sequences at the 5′ and 3′ ends of the insert, the sequence of the insert provided in the sequence listing is shorter than the fragment length that forms part of the digital address.” left out

For experiment [6], the system named is REC1_13 (MspI GCCC 216) mRNA. In words: TOGA analysis, REC1_13. The conditions noted are these: REC1_13 GCCC 216; rabbit aorta, 14 days cholesterol. On the procedure:
as §1, §2, §3
as §4, with “These two parameters, sequence and fragment length, were used to compare the obtained PCR products to a database of known polynucleotide sequences. Since the length of the obtained PCR products includes known vector sequences at the 5′ and 3′ ends of the insert, the sequence of the insert provided in the sequence listing is shorter than the fragment length that forms part of the digital address.” left out

In experiment [7] the test system is REC1_37 (digital address TTCA 264) mRNA, ribosomal protein L15. Briefly: TOGA analysis, REC1_37. On the procedure:
as §1, §2, §3, §4, §5

The subject of experiment [8] is REC1_31 (digital address TGCA 210) mRNA, mitochondrial genome. Briefly: TOGA analysis, REC1_31. As for the experimental part: as §1, §2, §3, §4, §5
Experiment [9] deals with REC1_24 (digital address CCGG 232) mRNA. Briefly: TOGA analysis, REC1_24. As for the experimental part:
as §1, §2, §3, §4, §5

For experiment [10], the system named is REC1_7 (MspI CACA 282) mRNA. Briefly: TOGA analysis, REC1_7. On the procedure: as §1, §2, §3, §4, §5
Experiment [11] concerns REC1_34 (digital address CGGT 209) mRNA. Briefly: TOGA analysis, REC1_34. As for the experimental part:
as §1, §2, §3, §4, §5

Experiment [12] relates to REC1_22 (digital address TGGG 164) mRNA. Briefly: TOGA analysis, REC1_22. On the procedure: as §1, §2, §3, §4, §5
Setting [13] is: aorta at day 14 of cholesterol administration, 3 mg/kg/week for 4 weeks.
Setting [14] is: aorta at day 14 of cholesterol, 3 mg/kg/week for 4 weeks.
The mark [15] stands for this setting: TOGA, hypercholesterolemic plus lercanidipine R (−), eight weeks, H2 (normocholesterolemic)=1.0.

For `COC(=O)C1=C(C)NC(C)=C(C(=O)OC(C)(C)CN(C)CCC(c2ccccc2)c2ccccc2)[C@@H]1c1cccc([N+](=O)[O-])c1` [Lercanidipine (R)], the “level of gene expression, 14 Day hypercholesterol + Lercanidipine (R)” value is listed as 864 in [1] (REC1_28 CGGT 101, rabbit aorta, 14 days cholesterol); 170 in [2] (REC1_33 CCGA 96, rabbit aorta, 14 days cholesterol); 539 in experiment [3]; 748 in [5]; 404 in experiment [6]; 42 in experiment [7] (REC1_37 TTCA 264, rabbit aorta, cholesterol 14 days). The “level of gene expression, 14 Day hypercholesterol + Lercanidipine (R)” value in [8] (REC1_31 TGCA 210, rabbit aorta, cholesterol 14 days) was 28; in [9] (REC1_24 CCGG 232, rabbit aorta, 14 days cholesterol), 139; in experiment [11] (REC1_34 CGGT 209, rabbit aorta, 14 days cholesterol), 58; in experiment [12] (REC1_22 TGGG 164, rabbit aorta, cholesterol 14 days), 47. Besides, the “level of gene expression (TOGA), 14 Day hypercholesterol + Lercanidipine (R)” value in [4] (REC1_1, AAGC 288, rabbit aorta, 14 days cholesterol + (R)-enantiomer) was 872; in experiment [10] (REC1_7, CACA 282, rabbit aorta, 14 days cholesterol + (R)-enantiomer) it was 683.
On to `COC(=O)C1=C(C)NC(C)=C(C(=O)OC(C)(C)CN(C)CCC(c2ccccc2)c2ccccc2)[C@@H]1c1cccc([N+](=O)[O-])c1.Cl` (single isomer, unassigned) [(R)-lercanidipine], for which, in experiment [1] (aorta of hypercholesterolemic rabbits treated with (R)-lercanidipine), the “expression of REC1_28 (TOGA), in words” value is “not down-regulated”. Also, in [2] (setting [13]), the “level of gene expression of REC1_33 (TOGA)” value is recorded as 170. Also, the “level of gene expression of REC1_1 (TOGA)” value in [4] (aorta at day 14 of cholesterol treatment, 3 mg/kg/week for 4 weeks) was found to be 872. Also, the “level of gene expression of REC1_37 (TOGA)” value in experiment [7] (setting [14]) is listed as 42. Moreover, the “level of gene expression of REC1_31 (TOGA)” value in experiment [8] (setting [13]) was found to be 28. Further, the “Relative Abundance Rec1_24, TOGA, D” value in [9] (setting [15]) turned out to be 0.3. In addition, the “level of gene expression of REC1_7 (TOGA)” value in experiment [10] (setting [13]) worked out at 683. Further, the “level of gene expression of REC1_34 (TOGA)” value in experiment [11] (setting [14]) came out at 58. Also, in experiment [12] (setting [15]), the “Relative Abundance Rec1_22, TOGA, D” value amounted to 0.1.

The values above are taken from patent US20030215817A1, “Modulation of gene expression in formation of fatty atherosclerotic lesions” (priority 2003, published 2003).
